Where “and” joins values, the source holds several entries; their conditions need not be identical. Equal entries are not always repeated. Structures can show the parent of a compound that is named as a salt.
Tests used:
[1] = Insulin - Oral Delivery (glucose levels in serum after oral dosing of delivery agent compound with human zinc insulin); assay type: in vivo, Male Sprague-Dawley rats; settings: rat, delivery agent compound 200 mg/kg + insulin 0.5 mg/kg, volume dose 2 ml/kg
Method: Oral dosing (PO) compositions of delivery agent compound and human zinc insulin (minimum 26 IU/mg available from Calbiochem-Novabiochem Corp, La Jolla, Calif.) were prepared in deionized water. Typically, 500 mg of delivery agent compound was added to 1.5 ml of water. The solution was vortexed, then heated (about 37° C.) and sonicated. The pH was adjusted to about 7 to 8.5 with NaOH or HCl. Additional NaOH was added, if necessary, to achieve uniform solubility, and the pH re-adjusted to about 7 to 8.5. Water was then added to bring the total volume to about 2.4 ml and vortexed. About 1.25 mg insulin from an insulin stock solution ([…] made from 0.5409 g insulin and 18 ml deionized water, adjusting with HCl and NaOH to pH 8.15 and to obtain a clear solution using […]) was added to the solution and mixed by inverting. The solution may be used in the dosing protocol immediately, or alternatively, the solution may be placed into a 37° C. water bath for one hour prior to dosing. The final delivery agent compound dose, insulin dose and dose volume amounts are listed below in Table 1.
The typical dosing and sampling protocols were as follows. […] A dosing group of five animals was administered one of the dosing solutions. […] The dosing solution was administered by pressing the syringe plunger.

[2] = Oral BIBN4096BS Delivery (peak BIBN4096BS concentration after oral gavage with delivery agent compound); settings: rat, delivery agent compound 200 mg/kg + BIBN4096BS 25 mg/kg, 1 ml/kg
Method: Oral gavage (PO) dosing solutions of delivery agent compound and the calcitonin gene-related peptide antagonist, 1-piperidinecarboxamide, N-[2-[[5-amino-1-[[4-(4-pyridinyl)-1-piperazinyl)carbonyl]pentyl]amino]-1-[(3,5-dibromo-4-hydroxyphenyl)methyl]-2-oxoethyl]-4(1,4-dihydro-2-oxo-3(2H0-quinazolinyl)-. [R—(R*,S*)]- (BIBN4096BS) in water were prepared. […] The final dosing solutions were prepared by mixing the delivery agent compound with a BIBN4096BS stock solution and diluting to the desired volume (usually 1.0 mL). If necessary, the pH of the mixture was adjusted by the addition of aliquots of aqueous hydrochloric acid solution of an appropriate normality until the final pH of the dissolved delivery agent compound was below 7.0. The final compound amounts per dose were 25 mg/kg of BIBN4096BS and 200 mg/kg of delivery agent compound in a total volume of 1 mL/kg.
The typical dosing and sampling protocols were as follows. Male Sprague-Dawley rats weighing between 200-250 g were fasted for 24 hours and administered ketamine (44 mg/kg) and chlorpromazine (1.5 mg/kg) 15 minutes prior to dosing. A dosing group of five rats was administered one of the dosing solutions. […] Plasma BIBN4096BS concentrations were quantified by using a liquid chromatography/mass spectrometry/mass spectrometry assay method using UV detection. […]

## 4-(4-(2-hydroxyphenoxy)butyl)morpholinium Citrate [Compound 7]
[1]
  Glucose Levels in Serum (% change from baseline ± SD): −11.7 ± 3.4%

## Oc1ccccc1OCCCCCCCCN1CCOCC1 (as salt: salt) [Compound 1, 4-8-(2-hydroxyphenoxy) octylmorpholine]
other
  melting point: 137 to 139 °C

## CS(=O)(=O)O.Oc1ccccc1OCCCCCCCCN1CCOCC1 [1 (Mesylate), (4-(8-(2-hydroxyphenoxy)octyl)morpholine)mesylate]
[2]
  Mean Peak Serum ± sd ng/ml (BIBN4096BS): 408 ± 340 ng/mL and 608 ± 552 ng/mL

## Oc1ccccc1OCCCCCCCCN1CCOCC1 [Compound 1, 4-8-(2-hydroxyphenoxy) octylmorpholine]
[1]
  Glucose Levels in Serum (% change from baseline ± SD): −5.9 ± 4.6% and 0.3 ± 8.2%

## OCCN(CCO)CCCCCCCCOc1ccccc1O [Compound 2, 8-(2-hydroxyphenoxy) octyldiethanolamine) citrate]
[1]
  Glucose Levels in Serum (% change from baseline ± SD): −10.8 ± 6.8%

## Oc1ccccc1OCCCCCCCN1CCOCC1 [Compound 3, 7-(4-(2hydroxyphenoxy)heptylmorpholinium citrate]
[1]
  Glucose Levels in Serum (% change from baseline ± SD): −9.8 ± 4%

## Oc1ccc(OCCCCCCN2CCOCC2)cc1 [Compound 4]
[1]
  Glucose Levels in Serum (% change from baseline ± SD): −2.3 ± 10.6%

## NCCCCCCCCOc1ccc(O)cc1 [Compound 6, 8-(4-hydroxyphenoxy)octanamine]
[1]
  Glucose Levels in Serum (% change from baseline ± SD): 6.4 ± 17.1%

## CC(=O)c1ccccc1OCCCCCCN(C)C.Cl [Compound 8, 6-(2-acetylphenoxy)-1-dimethylaminohexane hydrochloride]
[1]
  Glucose Levels in Serum (% change from baseline ± SD): −8.2 ± 9.5%
other
  melting point: 138 to 141 °C
